Test results as given in patent US20220132856A1, “PHOTOSENSITIZER AND CHELATING AGENT COMBINATIONS FOR USE AS INSECTICIDES” (SUNCOR ENERGY INC., priority 2019, published 2022).

How the values were obtained:
[1] = tested on: Common Poinsettia plants (Euphorbia pulcherrima); settings: 0=healthy plants, 10=dead plants
Method: Poinsettia plants were evaluated for phytotoxicity after treatments. Phytotoxicity on the plants was rated 0 to 10, where 0=healthy plants, 10=dead plants at 6 DAA and 13DAA. Ratings were based on visual observations for symptoms such as chlorosis, necrosis, deformation, stunting and compared to plants in the untreated control.

[2] = tested on: Common Poinsettia plants (Euphorbia pulcherrima) cv Prestige Red; test: Phytotoxicity on poinsettia plants (Example 4)
[3] = tested on: German cockroach (Blatella germanica); test: German cockroach nymph suppression, treatment fed in 1% sucrose solution, light or dark; format: in vivo; settings: cockroach nymphs
Method: A small German cockroach colony (Blatella germanica) was purchased from Benzon Research (USA). Cockroach mix sex nymphs were used as model insect.
The experiments were conducted in a lab. Insectary at 25° C. in light and dark conditions. Light condition: 12 h light/12 h dark photoperiod. During the light period insects were exposed to Spectrum Physio Spec Indoor LED light 250 μmol m^−2 s^−1 Dark condition: insects were kept in complete dark. Insects were fed prior to treatments with 1% sucrose solution and were anesthetizing in the fridge for a few minutes before handling.
Ten homogenous cockroach nymphs (3-4 instar) were carefully transferred into each half pint clear glass jar abraded internally to provide surface for climbing and lined with 9 cm in diameter filter paper. The treatments were administered to cockroaches in a 1% sucrose solution positioned in 10 ml glass vials abraded externally for easy climbing insects and placed in jars. Fresh treatment solutions were replaced each 3 days. Glass jars were covered with mesh. […] Completely randomized design with 4 replications per treatment was used.
Treated insects were kept under specific conditions for 14 days and mortality count was performed at 7 and 14 days after exposure to treatments.

[4] = tested on: Silverleaf whitefly (Bemesia argentifolii); test: Silverleaf whitefly suppression on sprayed poinsettia (Example 4); format: in vivo; settings: whitefly nymphs, two sprays 7 days apart, sunlight 2 days; for Insects Suppression, % 6 DAT2: 6 days after second application; for Insects Suppression, % 13 DAT2: 13 days after second application
Method: The experiments were conducted in a greenhouse. Whiteflies were maintained on Common Poinsettia plants (Euphorbia pulcherrima) cv Prestige Red in the Greenhouse. Host plants and experimental plants were not initially exposed to pesticide treatments.
Experimental poinsettia plants were grown in 6.5″ plastic pots filled with Sunshine #4 soil mix. The plants were irrigated every day and soluble fertilizer 20-20-20 @ 200 ppm was applied twice weekly.
The poinsettia plants were placed into a whitefly infected greenhouse for 30 days to obtain uniform colonies of insect nymphs on the plants. After 30 days, the infested plants were moved from the infested greenhouse and placed outside of the greenhouse for a two-day adaptation period prior to the treatment. Whitefly nymph population was counted one day prior to the treatment using the discs method.
Two 5.47 cm^2 discs were taken from each replicate, insects were observed under a stereoscope and counted. The discs were taken from the randomly collected leaves from the mid to upper strata areas of the plant as this area is preferred by insects for eggs laying and nymphs development. Upon initiation of the experiment the whitefly population was considered uniform.
Treatments were applied two times with a 7-day interval using CO2 backpack sprayer with a single hollow cone nozzle (TVXK-3) at 40 psi. Plants were thoroughly sprayed with tested treatments and immediately exposed to direct sunlight for 2 days before returning to the greenhouse setting. For each treatment, six single plant replicates were used. After 2 days of outside sun exposure, all plants were carefully moved into the separate greenhouse and placed on a wire mesh bench in a Completely Randomized design. A second application of treatments was made 7 days after the first application using the same methodology.
The number of whitefly nymphs per disc was counted at 6 and 13 days after second foliar application (6 DAT2, 13DAT2). The Plants were evaluated for phytotoxicity at 6 days after each foliar spray.

[5] = tested on: potato aphids (Macrosiphum euphorbiae); settings: for Mean Insects Mortality, % 24 HAT / Mean Insects Mortality, % 48 HAT: LED light exposure 14 h after treatment
Method: Potato aphids (Macrosiphum euphorbiae) were obtained from a colony maintained on Bell pepper (Capsicum annuum L.) plants grown in 1-gal plastic pots containing soil mix for greenhouse use (Sunshine LC1, Sun Gro Horticulture Canada Ltd.). Plants were watered as needed and fertilized twice a week with 20-20-20 water soluble fertilizers. Host plants were not exposed to pesticide treatments.
Pepper leaves infested with aphid nymphs were collected and each leaf was placed in 50 ml vials filled with water. Vials were covered with the lead with a small opening to prevent insects from drowning. Vials with host plant leaf infested with insects were placed in 500 ml transparent plastic containers and covered with transparent leads.
All treatments were applied as a fine spray using a hand-held plastic spray bottle. Each treatment was replicated 4 times. Water treatment was used as a Control.
After 14 h of exposure to LED light or dark insects were kept at a regular 14 h/10 h (light/night) photoperiod. Containers with insects were arranged in a randomized fashion. The experimental rack was placed in the Plant Growth Room at 24-25° C.
The number of live aphids on each leaf (replicate/container) was counted before application of the treatments, as well as 24 h and 48 h after the treatments. The insects were examined using 10× magnifying glass. Aphids were considered dead if no movement was detected after mechanical stimulation with the paintbrush.
Percentage of mortality was calculated by using the numbers of live and dead aphids. Percentage of mortality was rated as zero, when number of insects in the sample increased during the experiment (aphids females gave birth to nymphs).

[6] = tested on: Silverleaf whitefly (Bemesia argentifolii); test: Silverleaf whitefly live nymph count on sprayed poinsettia (Example 3); format: in vivo; settings: for Mean number of whitefly live nymphs/sample −1 DAA: 1 day before treatments application (baseline); for Mean number of whitefly live nymphs/sample 6 DAA: 6 days after first application, sunlight 8 h after spray; for Mean number of whitefly live nymphs/sample 13 DAA: 13 days after first application (6 days after application 2); for Mean number of whitefly live nymphs/sample 20 DAA: 20 days after first application (13 days after application 2); for Mean number of whitefly live nymphs/sample 28 DAA: 28 days after application 1 (21 days after application 2)
Method: The experiments were conducted in a greenhouse. Whiteflies were maintained on Common Poinsettia plants (Euphorbia pulcherrima) in the Greenhouse. Host plants and experimental plants were not initially exposed to pesticide treatments.
Experimental poinsettia plants were grown from the plug stage in 6.5″ plastic pots filled with Sunshine #4 soil mix. The plants were irrigated every day and soluble fertilizer 20-20-20 @ 200 ppm was applied twice weekly.
The poinsettia plants were placed for 7 days to whitefly infected the greenhouse to obtain uniform colonies of insect nymphs on introduced plants. After 7 days, the plants were removed from the infested greenhouse and whitefly nymph population was counted using the discs method.
Two 5.47 cm^2 discs were taken from each plant replicate, insects were observed under a stereoscope and counted. The discs were taken from the mid to upper strata areas of the plant as this area is preferred by insects for eggs laying and nymphs development. Upon initiation of the experiment the whitefly population was considered uniform.
Treatments were applied with CO2 backpack sprayer with a single solid cone nozzle (TG1) at 60 psi. Plants were thoroughly sprayed with tested treatments and immediately exposed to direct sunlight for 8 h before returning to the greenhouse setting. For each treatment, five single plant replicates were used. After 8 h of outside sun exposure all plants were carefully moved into the greenhouse and placed on a wire mesh bench in RCB design. A second application of treatments was made 7 days after the first application using the same methodology.
The number of whitefly nymphs per disc was counted at 1 day before treatments application (DAA), 6 days after first application (DAA), 13 days after first application (or 6 days after application 2), 20 days after first application 1 (or 13 days after application 2) and 28 days after application 1 (or 21 days after application 2).

[7] = tested on: Citrus Mealybug (Planococcus citri Risso); test: Mealybug exposure to direct spray in petri dishes, instar mortality; format: in vivo; settings: mealybug instars sprayed in petri dishes, simulated daylight (LED) 14 h
Method: (§1) Colonies of Citrus Mealybug (Planococcus citri Risso) were maintained on Coleus plants (Solenostemon Scutellarioides L. Codd) grown in a Greenhouse under 24±4° C. and 16 h light/8 h dark photoperiod. […] Host plants were not initially exposed to pesticide treatments.
(§2) Small crowns of coleus shoots (4-6 cm in height, 6-7 leaves) were excised from the mature healthy plant and inserted into water-filled 50 ml plastic vials.
(§3) Homogenous mealybug instars-crawlers were carefully collected from the infested coleus plants using tip-moist soft fine paintbrush into a petri dish lined with filter paper. A total of 20 mealybug instars were released on upper leaves of each coleus shoot. […] Rack was located in the Plant Growth Room at 24-25° C.
(§4) Each treatment was replicated 4 times. Water treatment was used as a Control.
(§5) Insects were examined using 10×magnifying glass. […] The number of live and dead insects were recorded. Insect mortality was assessed for up to 96 hours after treatment (HAT-hours after treatment).
(§6) Percentage of citrus mealybug mortality for each treatment was calculated and data was subjected to One-way ANOVA combine with All Pairwise Multiple Comparison Procedures using the Fisher protected LSD mean separation test, […].
Mealybug instars were transferred into plastic containers lined with filter paper, sprayed and immediately exposed to light for […]. […]

[8] = tested on: Citrus Mealybug (Planococcus citri Risso); test: Mealybug exposure to direct spray on plants (coleus shoots), instar mortality; format: in vivo
Method: as §1, §2, §3, §4, §5, §6
Mealybug were introduced to coleus shoots. Two hours later, the shoots were sprayed with photosensitizer and placed under the light for 14 hours.

Compound | Phytotoxicity (0-10) 6 DAA [1] | Phytotoxicity (0-10) 13 DAA [1] | Phytotoxicity (0-10) 20 DAA [1] | Phytotoxicity (0-10) 28 DAA [1] | Phytotoxicity % 13 DAT2 [2] | Insects Suppression, % 6 DAT2 [4] | Insects Suppression, % 13 DAT2 [4] | Mean Insects Mortality, % 24 HAT ([5]; 24 HAT) | Mean Insects Mortality, % 48 HAT ([5]; 48 HAT) | Mean number of whitefly live nymphs/sample −1 DAA [6] | Mean number of whitefly live nymphs/sample 6 DAA [6] | Mean number of whitefly live nymphs/sample 13 DAA [6] | Mean number of whitefly live nymphs/sample 20 DAA [6] | Mean number of whitefly live nymphs/sample 28 DAA [6] | further results
O=C([O-])CN(CCN(CC(=O)[O-])CC(=O)O)CC(=O)O.[Na+].[Na+] [0.1% Na2EDTA, Na2EDTA] | 0 | 0 | 0 | 0 | 0% | 36% | 31% | 6% | 20% | 93 nymphs/sample | 53 nymphs/sample | 69.7 nymphs/sample | 89.9 nymphs/sample | 44.3 nymphs/sample | Insects Suppression %, 14 DAT, Light (12/12 h light-dark) ([3]; LED 250 μmol m^−2 s^−1, 12 h light/12 h dark): 33%; Insects Suppression %, 14 DAT, Dark ([3]; complete dark): 0%
Mg-Chlorophyllin [0.2 wt % MgChln] | 0 | 0 | 0 | 0 | – | – | – | 24% | 24% | 111.4 nymphs/sample | 68 nymphs/sample | 56.6 nymphs/sample | 74.8 nymphs/sample | 30.1 nymphs/sample | Insect Mortality, % 24 HAT ([7]; 24 hours after treatment): 32.8%; Insect Mortality, % 96 HAT ([7]; 96 hours after treatment): 46.3%; Mean Insect Mortality, % 24 HAT ([5]; no light exposure (dark), dark exposure 24 h, 24 HAT): 5%; Mean Insect Mortality, % 48 HAT ([5]; no light exposure (dark), dark exposure 24 h, 48 HAT): 17%; Insect mortality, in words ([8]; infested plants sprayed, at 24 and 96 HAT): significant insect mortality; Insect Mortality, % 24 HAT ([8]; mealybugs on coleus shoots sprayed, light 14 h, 24 hours after treatment): 50%; Insect Mortality, % 96 HAT ([8]; mealybugs on coleus shoots sprayed, light 14 h, 96 hours after treatment): 68.8%
C=CC1=C(C)c2cc3[nH]c(cc4nc(cc5[nH]c(cc1n2)c(C)c5CCC(=O)[O-])C(CCC(=O)[O-])=C4C)c(C)c3C=C.[Na+].[Na+] [0.1% PPIX, Protoporphyrin sodium salts] | – | – | – | – | 0% | 41% | 28% | – | – | – | – | – | – | – | –
chlorin e6 [0.1% Ce6] | – | – | – | – | 0% | 27% | 28% | – | – | – | – | – | – | – | –
O=S(=O)([O-])c1ccc(-c2c3nc(c(-c4ccc(S(=O)(=O)[O-])cc4)c4ccc([nH]4)c(-c4ccc(S(=O)(=O)O)cc4)c4nc(c(-c5ccc(S(=O)(=O)[O-])cc5)c5ccc2[nH]5)C=C4)C=C3)cc1.[Na+].[Na+].[Na+] [0.1% TPPS-Na3, meso-tetra-(4-sulfonatophenyl) porphyrin trisodium salts] | – | – | – | – | 0% | 37% | 52% | – | – | – | – | – | – | – | –
